US10201556B2, “Combination for use in treating diseases or conditions associated with melanoma, or treating diseases or conditions associated with activated B-raf pathway” (InteRNA Technologies B.V., priority 2012, dated 2019)

Legend:
[1] = system: M249-R4 melanoma cell line; assay: Anti-proliferative effect of small molecules, MTS assay; type: cell-based; conditions: M249-R4 (M249-AR4), in vitro acquired resistance, 72 hours
Experimental: (§1) The anti-proliferative effect of small molecules in melanoma cell lines was determined with V600E BRAF inhibitor, vemurafenib (PLX-4032, 51267, Selleck) and MEK inhibitor, selumetinib (AZD-6244, S1008, Selleck). For each cell line optimal growth conditions were determined prior to the experiment. Cells were plated in a 96-well plate at 3000 cells per well (100 uL) and were grown at 37 C, 5% CO2. Small molecule mix (50 uL per well) was made for each concentration in medium. Cells were treated in triplicate 24 hours after plating. After 72 hours medium was replaced and viability was measured with the MTS assay (Promega) according to manufacturer's instructions. Cell viability inhibition is normalized against loading control (0.1% DMSO) and GraphPad Prism was used to fit the curve and calculate GI50 values.

[2] = system: M249 melanoma cell line; assay: as above; type: cell-based; conditions: M249, 72 h, M249, vemurafenib sensitive
Experimental: as §1

[3] = system: A375Hu melanoma cell line; assay: as above; type: cell-based; conditions: Homo sapiens, A-375, 72 h, A375Hu (A375), vemurafenib sensitive
Experimental: as §1

[4] = system: RPMI-7951 melanoma cell line; assay: as above; type: cell-based; conditions: Homo sapiens; RPMI-7951, intrinsic resistance; 72 hours, MTS
Experimental: as §1

[5] = system: A2058 melanoma cell line; assay: as above; type: cell-based; conditions: Homo sapiens, A2058, intrinsic resistance, 72 hours
Experimental: as §1

[6] = system: A375Hu-R1 (vemurafenib resistant clone of A375Hu); assay: as above; type: cell-based; conditions: Homo sapiens, A375Hu-R1 (A375-R), in vitro acquired resistance, 72 hours
Experimental: as §1
The A375Hu melanoma cell line was used to make a vemurafenib (PLX-4032) resistant sub line. A375Hu cells were plated at low density in 96-well plates and exposed to 1 uM PLX-4032. Cell growth was monitored until clonal growth was observed. Wells with clonal growth (approximately 5%) were replated in a 96-well plate and exposed to 1 uM PLX-4032. The 10 best growing clones were replated in 6-well plates in 1 uM PLX-4032 and the three best growing clones were used for further culturing. Clone number 1 (A375Hu-R1) grew best with 1 uM PLX-4032 and was chosen for additional experiments.

[7] = system: SKMEL-57 melanoma cell line; assay: as above; type: cell-based; conditions: SKMEL-57, vemurafenib sensitive
Experimental: as §1
A375 cells were obtained from the Hubrecht Institute (Utrecht, The Netherlands); SKMEL-28, A2058 and RPMI-7951 were from the ATCC; SKMEL-57 was a gift from Dr. Patricia Groenen (Radboud University Nijmegen Medical Centre, The Netherlands); for cell line characteristics of M249, M249-AR4, M233 and M376 see (Atefi et al. 2011). A375-R, with in vitro acquired resistance to vemurafenib, was established in our lab by clonal selection of cells continually exposed to 1 μM vemurafenib. A375, A375-R, SKMEL-28, A2058 and SKMEL-57 were grown in DMEM GlutaMAX™-I (Gibco®), all other cell lines in RPMI-1640 (Gibco®). Media was supplemented with 10% FBS (Sigma), and cells were maintained in a humidified 37° C. incubator (Thermo Scientific) with 5% CO2. Vemurafenib (PLX4032; Selleck Chemicals) was diluted in DMSO to a stock concentration of 10 mM.

[8] = system: M376 melanoma cell line; conditions: M376; value marked with footnote 1) Atefi M. et al.; cited from earlier work
[9] = system: M233 melanoma cell line; conditions: M233; value marked with footnote 1) Atefi M. et al.; cited from earlier work

Cn1cnc2c(F)c(Nc3ccc(Br)cc3Cl)c(C(=O)NOCCO)cc21 [Selumetinib, 6-(4-bromo-2-chlorophenylamino)-7-fluoro-N-(2-hydroxyethoxy)-3-methyl-3H-benzo[d]imidazole-5-carboxamide]
GI50 [1]: 2.91 µM
GI50 [2]: 0.1 µM
GI50 [3]: 0.05 µM
GI50 [4]: > 10 µM
GI50 [5]: > 10 µM
GI50 [6]: > 10 µM
GI50 [7]: 0.7 µM
GI50 [8]: 1 µM
GI50 [9]: > 10 µM
